According to patent publication US20210386367A1, “DEVICES AND SYSTEMS FOR GASTROINTESTINAL MICROBIOME DETECTION AND MANIPULATION” (Progenity, Inc., priority 2018, published 2021):
≈ marks a conversion by molar mass, not a printed value. Where two headings read alike, the source gives them in different places.

Assays:
[1] = test system: B. fragilis; experiment: Spontaneous mutation frequency and mutation prevention concentration (MPC); type: cell-based; conditions: B. fragilis ATCC 25285
From the text: (§1) As used herein, “spontaneous mutation frequency” refers to the rate at which mutations arise in a bacterium that can lead to resistance to develop to an antimicrobial agent. “Mutation prevention concentration” or “MPC” refers to the lowest concentration of antimicrobial agent above which the selective proliferation of resistant mutants is expected to occur only rarely.

[2] = test system: B. ovatus; experiment: as above; type: cell-based; conditions: B. ovatus MMX 3503
From the text: as §1

[3] = test system: B. fragilis ATCC 25285; experiment: Time-kill assay; type: cell-based, Bacteroides fragilis; conditions: 2×, 4×, 8× MIC; 2, 6, 24, 48 hr
[4] = test system: Bacteroides spp. (B. fragilis ATCC 25285, B. vulgatus, B. ovatus MMX 3503); conditions: cited from earlier work
[5] = test system: Enterobacteriaceae; conditions: cited from earlier work
[6] = test system: MDR Enterobacteriaceae; conditions: cited from earlier work
[7] = test system: Escherichia coli; conditions: cited from earlier work
[8] = test system: Klebsiella spp.; conditions: cited from earlier work
[9] = test system: Proteus mirabilis; conditions: cited from earlier work
[10] = test system: Bacteroides fragilis; conditions: cited from earlier work
[11] = test system: Fusobacterium spp; conditions: cited from earlier work
[12] = test system: Prevotella melanogenica; conditions: cited from earlier work
[13] = test system: Veillonella; conditions: cited from earlier work
[14] = test system: Staphylococcus aureus; conditions: cited from earlier work
[15] = test system: Enterococcus faecalis; conditions: cited from earlier work
[16] = test system: Enterococcus spp.; conditions: cited from earlier work
[17] = test system: Enterobacteriaceae; conditions: cited from earlier work; remark: listed apart in the source
[18] = test system: Klebsiella spp.; conditions: cited from earlier work; remark: listed apart in the source
[19] = test system: Bacteroides fragilis; conditions: cited from earlier work; remark: listed apart in the source
[20] = test system: Bacteroides thetaiotaomicron; conditions: cited from earlier work
[21] = test system: Bacteroides vulgatus; conditions: cited from earlier work
[22] = test system: Fusobacterium spp; conditions: cited from earlier work; remark: listed apart in the source
[23] = test system: Prevotella spp.; conditions: cited from earlier work
[24] = rifaximin selection 4X MIC, 1 μg/mL
[25] = rifaximin selection 8X MIC, 2 μg/mL
[26] = rifaximin selection 4X MIC, 2 μg/mL
[27] = rifaximin selection 8X MIC, 4 μg/mL

C[C@@H](O)[C@H]1C(=O)N2C(C(=O)O)=C(S[C@@H]3CN[C@H](C(=O)N(C)C)C3)[C@H](C)[C@H]12 [meropenem]
MPC [1]: 0.5 µg/mL | Average Count ([1]; selection 4X MIC, 0.5 μg/mL): 0 CFU | Count 1 ([1]; selection 4X MIC, 0.5 μg/mL): 0 CFU | Count 2 ([1]; selection 4X MIC, 0.5 μg/mL): 0 CFU | Spontaneous Mutation Frequency ([1]; selection 4X MIC, 0.5 μg/mL): ≤1.48 × 10^−10 | Average Count ([1]; selection 8X MIC, 1 μg/mL): 0 CFU | Count 1 ([1]; selection 8X MIC, 1 μg/mL): 0 CFU | Count 2 ([1]; selection 8X MIC, 1 μg/mL): 0 CFU | Spontaneous Mutation Frequency ([1]; selection 8X MIC, 1 μg/mL): ≤1.48 × 10^−10 | MPC [2]: 0.5 µg/mL | Average Count ([2]; selection 4X MIC, 0.5 μg/mL): 0 CFU | Count 1 ([2]; selection 4X MIC, 0.5 μg/mL): 0 CFU | Count 2 ([2]; selection 4X MIC, 0.5 μg/mL): 0 CFU | Spontaneous Mutation Frequency ([2]; selection 4X MIC, 0.5 μg/mL): ≤1.05 × 10^−10 | Average Count ([2]; selection 8X MIC, 1 μg/mL): 0 CFU | Count 1 ([2]; selection 8X MIC, 1 μg/mL): 0 CFU | Count 2 ([2]; selection 8X MIC, 1 μg/mL): 0 CFU | Spontaneous Mutation Frequency ([2]; selection 8X MIC, 1 μg/mL): ≤1.05 × 10^−10 | time-kill kinetics outcome (bactericidal = ≥3 log reduction in CFU per mL) [3]: rapid bactericidal activity against this organism at 6, 24 and 48 hr at 8×MIC, 24 and 48 hr at 4×MIC and at 24 hr at 2×MIC | CLSI QC range (agar MIC) [4]: 0.03 to 0.25 µg/mL | % S [5]: 98.3% | MIC50 [5]: ≤0.12 µg/mL | % S [6]: 75% | MIC50 [6]: ≤0.12 µg/mL | MIC90 [6]: >8 µg/mL | % S [7]: 83.1% | MIC50 [7]: ≤0.06 µg/mL | MIC90 [7]: 32 µg/mL (≈ 83.4 µM) | % S [8]: 78.3% | MIC50 [8]: ≤0.06 µg/mL | MIC90 [8]: >8 µg/mL | % S [9]: 99.4% | MIC50 [9]: 0.06 µg/mL (≈ 0.156 µM) | MIC90 [9]: 0.12 µg/mL (≈ 0.313 µM) | % S [10]: 94.5% | MIC50 [10]: 0.25 µg/mL (≈ 0.652 µM) | MIC90 [10]: 4 µg/mL (≈ 10.4 µM) | % S [11]: 100% | MIC50 [11]: 0.125 µg/mL (≈ 0.326 µM) | MIC90 [11]: 0.25 µg/mL (≈ 0.652 µM) | MIC range [11]: ≤0.03 to 0.5 µg/mL | % S [12]: 100% | MIC50 [12]: 0.06 µg/mL (≈ 0.156 µM) | MIC90 [12]: 0.25 µg/mL (≈ 0.652 µM) | MIC range [12]: ≤0.03 to 0.25 µg/mL | % S [13]: 100% | MIC50 [13]: ≤0.03 µg/mL | MIC90 [13]: ≤0.03 µg/mL | MIC range [13]: ≤0.03 to 0.25 µg/mL

CO[C@H]1/C=C/O[C@@]2(C)Oc3c(C)c(O)c4c(O)c(c5c(nc6cc(C)ccn65)c4c3C2=O)NC(=O)/C(C)=C\C=C\[C@H](C)[C@H](O)[C@@H](C)[C@@H](O)[C@@H](C)[C@H](OC(C)=O)[C@@H]1C [rifaximin]
MFC [1]: >2 µg/mL | Average Count [1, 24]: 11 CFU | Count 1 [1, 24]: 12 CFU | Count 2 [1, 24]: 10 CFU | Spontaneous Mutation Frequency [1, 24]: 1.63 × 10^−9 | Average Count [1, 25]: 8 CFU | Count 1 [1, 25]: 6 CFU | Count 2 [1, 25]: 9 CFU | Spontaneous Mutation Frequency [1, 25]: 1.19 × 10^−9 | MFC [2]: >4 µg/mL | Average Count [2, 26]: 34 CFU | Count 1 [2, 26]: 31 CFU | Count 2 [2, 26]: 37 CFU | Spontaneous Mutation Frequency [2, 26]: 3.58 × 10^−9 | Average Count [2, 27]: 27 CFU | Count 1 [2, 27]: 28 CFU | Count 2 [2, 27]: 25 CFU | Spontaneous Mutation Frequency [2, 27]: 2.84 × 10^−9 | time-kill kinetics outcome (bactericidal = ≥3 log reduction in CFU per mL) [3]: did not show evidence of killing | % S [14]: 100% | MIC50 [14]: ≤0.25 µg/mL | MIC90 [14]: ≤0.25 µg/mL | MIC range [14]: ≤0.25 µg/mL | % S [15]: 100% | MIC50 [15]: 4 µg/mL (≈ 5.09 µM) | MIC90 [15]: 16 µg/mL (≈ 20.4 µM) | MIC range [15]: ≤0.25 to 16 µg/mL | MIC50 [16]: 4 µg/mL (≈ 5.09 µM) | MIC90 [16]: 32 µg/mL (≈ 40.7 µM) | MIC range [16]: ≤0.06 to 32 µg/mL | MIC50 [17]: 32 µg/mL (≈ 40.7 µM) | MIC90 [17]: >128 µg/mL | % S [18]: 43.6% | MIC50 [18]: 64 µg/mL (≈ 81.4 µM) | MIC90 [18]: 128 µg/mL (≈ 163 µM) | MIC range [18]: 8 to 128 µg/mL | MIC50 [19]: 0.25 µg/mL (≈ 0.318 µM) | MIC90 [19]: >1024 µg/mL | MIC50 [20]: 1 µg/mL (≈ 1.27 µM) | MIC90 [20]: >1024 µg/mL | MIC50 [21]: 0.25 µg/mL (≈ 0.318 µM) | MIC90 [21]: 0.5 µg/mL (≈ 0.636 µM) | MIC range [21]: 0.25 to 4 µg/mL | MIC50 [22]: 8 µg/mL (≈ 10.2 µM) | MIC90 [22]: >1024 µg/mL | MIC50 [23]: 0.25 µg/mL (≈ 0.318 µM) | MIC90 [23]: 0.5 µg/mL (≈ 0.636 µM) | MIC range [23]: 0.25 to 1 µg/mL
